The values that follow come from PMC8954350, “Non-Canonical Cannabinoid Receptors with Distinct Binding and Signaling Properties in Prostate and Other Cancer Cell Types Mediate Cell Death” (International Journal of Molecular Sciences, 2022).

For one experiment, the system named is NPrEC. As to the kind of experiment: LDH cytotoxicity, NPrEC cells. It counts as cell-based. The settings on record: NPrEC immortalized non-cancerous cell line.
In a further experiment the target is T1, human CB2 receptors (Homo sapiens, UniProt P34972).
T1 construct: expressed in transfected cells
T1 sequence (P34972 whole entry): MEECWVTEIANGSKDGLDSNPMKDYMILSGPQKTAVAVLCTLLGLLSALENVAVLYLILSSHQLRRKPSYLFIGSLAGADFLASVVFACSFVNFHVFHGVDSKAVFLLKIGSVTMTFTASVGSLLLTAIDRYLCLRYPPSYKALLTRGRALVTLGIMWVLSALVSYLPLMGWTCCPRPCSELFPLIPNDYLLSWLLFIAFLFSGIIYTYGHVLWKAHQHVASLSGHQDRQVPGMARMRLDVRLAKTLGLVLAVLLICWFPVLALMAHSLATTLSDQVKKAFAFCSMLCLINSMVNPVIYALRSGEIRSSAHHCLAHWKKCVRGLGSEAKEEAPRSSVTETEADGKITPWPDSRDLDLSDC
The experiment in a line: Competition binding, CHO-hCB2 membranes. The following applies: membranes from CHO cells stably expressing human CB2. As for the experimental part: (§1) The assay was performed as previously detailed. […] All binding reactions were conducted in triplicate, in a final volume of 1 mL, and, following mixing, were incubated for 20 min in a 37 °C water bath to achieve equilibrium. After incubation, reactions were terminated by rapid vacuum filtration and processed for radioactivity, as detailed in Section 4.5.1.
(§2) Curve-fitting and all statistical analyses were performed using GraphPad Prism® v8.0g (GraphPad Software, Inc.; San Diego, CA, USA). […] For CBR screening studies, a one-sample t-test was performed to determine differences from 100% (e.g., to quantify compounds producing displacement), followed by a one-way ANOVA and Tukey’s post hoc tests to compare displacement produced by all drugs. […] To compare specific CBR affinity (Ki) between ligands, non-linear regression analysis was employed to determine experimental IC50 values from competition receptor binding assays, which were then converted to Ki values using the Cheng–Prusoff equation [35]. […] For LDH release, ATP-dependent cell viability and JC-1 staining assays, drug effects were first analyzed by a one-sample t-test to determine differences from 0 or 100% (vehicle), followed by a one-way ANOVA and Dunnett’s post hoc test to compare all means. […]

The next experiment addresses T2, human CB1 receptors (Homo sapiens, UniProt P21554).
T2 construct: host or cells: CHO
As to the kind of experiment: Competition binding, CHO-hCB1 membranes. The settings on record: membranes from CHO cells stably expressing human CB1. As for the experimental part: as §1, §2

Experiment [1] addresses non-canonical CBRs expressed in C6-glioma. The experiment in a line: Homologous receptor binding, C6-glioma. Details: species or system mouse. The following applies: homologous competition with [^3H]WIN-55,212-2 (1 nM), read-out: affinity (KD). As for the experimental part: (§3) All binding reactions were conducted in triplicate, in a final volume of 1 mL, and, following mixing, were incubated for 20 min in a 37 °C water bath to achieve equilibrium. After incubation, reactions were terminated by rapid vacuum filtration and processed for radioactivity, as detailed in Section 4.5.1.
(§4) Curve-fitting and all statistical analyses were performed using GraphPad Prism® v8.0g (GraphPad Software, Inc.; San Diego, CA, USA). For qRT-PCR experiments, a one-way ANOVA, followed by Dunnett’s test as a post hoc test was utilized to compare fold change of PC-3 and DU-145 cancer cells to an arbitrary value of 1, set to the amount of mRNA transcribed from a human normal prostate control. For CBR screening studies, a one-sample t-test was performed to determine differences from 100% (e.g., to quantify compounds producing displacement), followed by a one-way ANOVA and Tukey’s post hoc tests to compare displacement produced by all drugs. […] For LDH release, ATP-dependent cell viability and JC-1 staining assays, drug effects were first analyzed by a one-sample t-test to determine differences from 0 or 100% (vehicle), followed by a one-way ANOVA and Dunnett’s post hoc test to compare all means. […]

Experiment [2] relates to CBRs expressed in PC-3 cells. The experiment in a line: [^3H]CP-55,940 competitive binding screen, PC-3 membranes. Set-up: species or system human. The settings on record: 1 μM ligand, 0.2 nM radioligand. As for the experimental part:
(§5) The assay was conducted as previously detailed. […] All binding reactions were conducted in triplicate, in a final volume of 1 mL, and, following mixing, were incubated for 20 min in a 37 °C water bath to achieve equilibrium. After incubation, reactions were terminated by rapid vacuum filtration through Whatman GF/B glass fiber filters (Brandel; Gaithersburg, MD, USA), followed by three washes of 4 mls of ice-cold filtration buffer (50 mM Tris, pH 7.4, and 0.05% bovine serum albumin). Samples were punched out from filter papers into scintillation vials, to which 4 mls of ScintiverseTM-BDR cocktail scintillation fluid (Fisher Scientific; Hampton, NH, USA) was added. Filters were incubated at room temperature for 24 h in scintillation fluid, vortexed, and radioactivity (measured as DPMs) was quantified via a liquid scintillation spectrophotometer (Tri Carb 2100 TR Liquid Scintillation Analyzer, Packard Instruments, Meriden, CT, USA).

In experiment [3] the target is non-canonical CBRs expressed in PC-3. As to the kind of experiment: Homologous receptor binding, PC-3. Set-up: species or system human. The following applies: homologous competition with [^3H]WIN-55,212-2 (1 nM), read-out: affinity (KD). As for the experimental part: as §3, §4
Experiment [4] deals with CBRs expressed in C6-glioma cells. The experiment in a line: [^3H]WIN-55,212-2 competitive binding screen, C6-glioma membranes. The following applies: 1 μM ligand, 1 nM radioligand. Details: species or system mouse. As for the experimental part: as §5
For experiment [5], the system named is CBRs expressed in PC-12 cells. The experiment in a line: [^3H]CP-55,940 competitive binding screen, PC-12 membranes. The settings on record: 1 μM ligand, 0.2 nM radioligand. Set-up: species or system rat. As for the experimental part:
as §5

Experiment [6] has as its system canonical human CB1Rs (CHO-hCB1). Set-up: method as in PMID 34592231. The settings on record: 1 μM ligand, 1 nM radioligand, CHO-hCB1 membranes; cited from earlier work.
The target in experiment [7] is non-canonical CBRs expressed in HeLa. As to the kind of experiment: Homologous receptor binding, HeLa. Details: species or system human. The following applies: homologous competition with [^3H]WIN-55,212-2 (1 nM), read-out: affinity (KD). As for the experimental part:
as §3, §4

The test system of experiment [8] is CBRs expressed in HeLa cells. As to the kind of experiment: [^3H]WIN-55,212-2 competitive binding screen, HeLa membranes. Set-up: species or system human. The following applies: 1 μM ligand, 1 nM radioligand. As for the experimental part:
as §5

The subject of experiment [9] is CBRs expressed in PC-12 cells. As to the kind of experiment: [^3H]WIN-55,212-2 competitive binding screen, PC-12 membranes. Set-up: species or system rat. The following applies: 1 μM ligand, 1 nM radioligand. As for the experimental part:
as §5

Experiment [10] has as its system canonical human CB1Rs (CHO-hCB1). Details: method as in PMID 34592231. The following applies: 1 μM ligand, 0.2 nM radioligand, CHO-hCB1 membranes; cited from earlier work.
Experiment [11] addresses non-canonical CBRs expressed in PC-12. As to the kind of experiment: Homologous receptor binding, PC-12. Details: species or system rat. The settings on record: homologous competition with [^3H]WIN-55,212-2 (1 nM), read-out: affinity (KD). As for the experimental part: as §3, §4
Experiment [12] concerns canonical human CB2Rs (CHO-hCB2). Details: method as in PMID 34592231. The following applies: 1 μM ligand, 0.2 nM radioligand, CHO-hCB2 membranes; cited from earlier work.

Molecules are shown by their SMILES.

T2 sequence (P21554 whole entry): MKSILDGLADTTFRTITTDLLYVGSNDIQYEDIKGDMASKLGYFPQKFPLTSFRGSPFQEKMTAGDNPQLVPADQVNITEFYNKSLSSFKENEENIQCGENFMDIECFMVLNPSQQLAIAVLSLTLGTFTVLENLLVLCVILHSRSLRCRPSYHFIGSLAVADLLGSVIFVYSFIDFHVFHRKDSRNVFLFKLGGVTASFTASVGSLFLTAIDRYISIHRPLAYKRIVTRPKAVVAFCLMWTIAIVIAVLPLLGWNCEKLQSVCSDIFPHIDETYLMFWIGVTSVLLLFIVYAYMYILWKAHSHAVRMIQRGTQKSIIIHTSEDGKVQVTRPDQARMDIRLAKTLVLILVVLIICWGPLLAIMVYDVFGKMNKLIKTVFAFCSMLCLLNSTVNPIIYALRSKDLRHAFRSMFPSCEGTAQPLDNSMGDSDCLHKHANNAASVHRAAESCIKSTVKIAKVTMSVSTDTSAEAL

Regarding `COc1ccc2c(c1)c(CCN1CCOCC1)c(C)n2C(=O)c1cccc(Cl)c1Cl` [GW-405833], the LDH release in the experiment with NPrEC was found to be 46.4 ± 6.4%. For the same compound, the Ki (as a rule, a measure of affinity in units of concentration, obtained from inhibition or displacement) came out at 51 nM at human CB2 receptors and 747 nM on human CB1 receptors.

In the case of `Cc1c(C(=O)c2cccc3ccccc23)c2cccc3c2n1[C@H](CN1CCOCC1)CO3` [WIN-55,212-2], the Kd (commonly the constant that tells how readily two partners part at equilibrium) in [1] turned out to be 16.1 ± 2.5 nM; in [3], 8.4 ± 2.1 nM; in [7], 7 ± 1.6 nM; in [11], 12.6 ± 2.7 nM. Further, the “displacement of [^3H]CP-55,940” value in experiment [2] was “neither the non-selective CBR ligand CP-55,940 nor WIN-55,212-2 produced significant displacement”; in experiment [5], “neither the non-selective CBR ligand CP-55,940 nor WIN-55,212-2 produced significant displacement”; in experiment [10] it was “produced near or complete displacement”; in experiment [12], “produced near or complete displacement”. The “displacement of [^3H]WIN-55,212-2 (Figure 1B)” value in experiment [4] is listed as “significantly displaced”; in experiment [6], “produced near or complete displacement”; in experiment [8], “significantly displaced”; in experiment [9] it was “significantly displaced”.
